Reference: patent US20060276393A1, “Novel compositions for preventing and treating neurodegenerative and blood coagulation disorders” (Sirtris Pharmaceuticals, Inc., priority 2005, published 2006)
Read-outs that look alike come from different tables or passages of the source.

Tests used:
[1] = target: T1, SIRT1 deacetylase (BIOMOL) (Homo sapiens, UniProt Q96EB6); assay: High-throughput SIRT1 screening protocol (ICCB library); format: biochemical; settings: positive controls; 200 μM NAD+, 5 μM Fluor de Lys-SIRT1; resveratrol 50 μM
T1 construct: purchased BIOMOL
T1 sequence (Q96EB6 1-747): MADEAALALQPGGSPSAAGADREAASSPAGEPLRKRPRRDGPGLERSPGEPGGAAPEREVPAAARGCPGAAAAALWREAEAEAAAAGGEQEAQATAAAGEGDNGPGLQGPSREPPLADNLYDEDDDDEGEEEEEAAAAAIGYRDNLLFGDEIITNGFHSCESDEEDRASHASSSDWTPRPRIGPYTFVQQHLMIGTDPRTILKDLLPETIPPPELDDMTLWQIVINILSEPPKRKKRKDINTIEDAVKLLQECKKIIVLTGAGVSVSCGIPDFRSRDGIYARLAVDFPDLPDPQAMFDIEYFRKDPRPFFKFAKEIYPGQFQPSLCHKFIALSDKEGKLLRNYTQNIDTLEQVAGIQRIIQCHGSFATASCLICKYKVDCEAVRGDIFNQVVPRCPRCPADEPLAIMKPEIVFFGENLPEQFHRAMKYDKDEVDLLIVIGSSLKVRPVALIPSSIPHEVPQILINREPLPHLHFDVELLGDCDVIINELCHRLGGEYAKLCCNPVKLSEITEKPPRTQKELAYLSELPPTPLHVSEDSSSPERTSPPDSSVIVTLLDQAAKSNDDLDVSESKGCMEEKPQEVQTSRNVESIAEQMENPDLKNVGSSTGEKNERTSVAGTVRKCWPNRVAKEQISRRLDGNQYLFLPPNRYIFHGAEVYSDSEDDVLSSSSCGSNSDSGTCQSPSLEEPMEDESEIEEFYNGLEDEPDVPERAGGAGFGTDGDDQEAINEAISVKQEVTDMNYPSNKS
Procedure: The reaction mixture contains (final): 0.5 units/reaction SIRT1 deacetylase (BIOMOL); 200 μM NAD^+; 5 μM Fluor de Lys-SIRT1 substrate (BIOMOL); buffer (25 mM Tris/Cl, pH 8.0, 137 mM NaCl, 2.7 mM KCl, 1 mM MgCl2, and 1 mg/ml BSA). In addition, a reaction mixture containing no enzyme was made so that each well receiving compound has a corresponding “no enzyme control” well. Reactions were performed in black 384 well plates (NUNC) in a final volume of 25 μl/well.
The reactions were started by combining enzyme and substrate in a reaction mixture immediately prior to aliquoting in plates (or substrate only for “no enzyme control” plates). Mixture were aliquoted to plates using Biotek μfill (Biotek Instruments). Control mixtures were manually added to designated wells. A library compound was added at a desired concentration by pin transfer to both “with enzyme” and “no enzyme” plates. Compounds were added in at least triplicate (with enzyme reaction in duplicate and no enzyme controls) at a final concentration of roughly 50 μM. The plates were incubated at 37° C for 30-60 minutes. Then 25 μl of 1× Developer II (BIOMOL) plus 2 mM nicotinamide were added to all wells to stop the reactions. The reactions were left for at least 30 minutes at 37° C. for the signal to develop. The plates were read in a microplate-reading fluorometer capable of excitation at a wavelength in the range of 350-380 nm and detection of emitted light in the range of 440-460 nm. A read time of 0.1 sec per well was used.

[2] = system: Experimental autoimmune encephalomyelitis (EAE) in SJL/J mice; settings: for Mean total EAE score: 30 days from day 11, vehicle 72.38; for Mean EAE Score - Last 10 Days: vehicle 23.00
recombinant dSir2 = target: T2, recombinant dSir2 (Drosophila melanogaster, UniProt Q9VK34); assay: dSir2 deacetylation assay; format: biochemical, D. melanogaster; settings: dose-dependent; Fluor de Lys
T2 sequence (Q9VK34 1-823): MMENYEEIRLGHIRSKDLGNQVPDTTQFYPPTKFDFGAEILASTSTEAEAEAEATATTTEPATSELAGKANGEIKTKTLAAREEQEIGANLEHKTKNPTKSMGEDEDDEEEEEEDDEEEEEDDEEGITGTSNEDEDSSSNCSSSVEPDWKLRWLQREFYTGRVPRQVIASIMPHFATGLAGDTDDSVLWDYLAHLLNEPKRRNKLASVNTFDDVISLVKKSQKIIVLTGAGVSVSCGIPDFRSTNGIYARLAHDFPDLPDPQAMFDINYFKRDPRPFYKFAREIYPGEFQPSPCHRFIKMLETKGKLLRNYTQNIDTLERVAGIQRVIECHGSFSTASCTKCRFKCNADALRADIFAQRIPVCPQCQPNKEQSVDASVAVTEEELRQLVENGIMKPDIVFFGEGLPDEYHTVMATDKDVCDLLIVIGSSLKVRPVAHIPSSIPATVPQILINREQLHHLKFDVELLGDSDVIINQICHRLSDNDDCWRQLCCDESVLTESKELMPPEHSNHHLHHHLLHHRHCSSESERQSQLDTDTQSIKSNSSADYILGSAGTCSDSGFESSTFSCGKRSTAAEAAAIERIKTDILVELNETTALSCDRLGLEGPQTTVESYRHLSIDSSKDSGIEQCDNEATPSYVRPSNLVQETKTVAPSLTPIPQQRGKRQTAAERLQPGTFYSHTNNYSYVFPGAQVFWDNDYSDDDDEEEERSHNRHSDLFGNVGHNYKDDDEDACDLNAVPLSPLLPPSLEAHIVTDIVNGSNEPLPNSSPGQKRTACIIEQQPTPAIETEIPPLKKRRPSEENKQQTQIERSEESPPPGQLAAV
Procedure: STACs were dissolved at 10 mM in dimethylsulfoxide (DMSO) the day of the assay. […] Drosophila S2 cells were grown in Schneider media with fetal calf serum at 23-28° C., seeded at 9×10^4 cells/well, grown overnight and then exposed to 1 μM TSA, 500 μM polyphenols, and 200 μM FdL for 2 hr. Deacetylation of FdL with lysate from whole cells was determined as described^4. Unless otherwise indicated all initial rate measurements were means of three or more replicates obtained with single incubation times, at which point 5% or less of the substrate initially present was deacetylated.

Oc1ccc(/C=C/c2cc(O)cc(O)c2)cc1 [Resveratrol, 3,5,4′-Trihydroxy-trans-stilbene]
activated SIRT1 [1]: 2.2 fold
clinical course ([2]; high dose resveratrol 400 mg/kg/day): not different from controls
peak and overall disease level ([2]; low dose resveratrol 200 mg/kg/day): slightly higher than controls
Mean total EAE score ([2]; resveratrol 200 mg/kg/day IP): 94.00
Mean EAE Score - Last 10 Days ([2]; resveratrol 200 mg/kg/day IP): 28.63
Mean total EAE score ([2]; resveratrol 400 mg/kg/day IP): 73.00
Mean EAE Score - Last 10 Days ([2]; resveratrol 400 mg/kg/day IP): 21.88
stimulated deacetylation (maximum) (recombinant dSir2): ≤ 2.4 fold
